What was measured:
Oilseed Rape = test: Test C preemergence: oilseed rape; type: in vivo; conditions: scale of 0 to 100, 0 is no effect, 100 is complete control
From the text: (§1) Seeds of plant species selected from blackgrass (Alopecurus myosuroides), bromegrass, downy (downy bromegrass, Bromus tectorum), foxtail, green (green foxtail, Setaria viridis), ryegrass, Italian (Italian ryegrass, Lolium multiflorum), winter wheat (Triticum aestivum), wild oat (Avena fatua), galium (catchweed bedstraw, Galium aparine), bermudagrass (Cynodon dactylon), surinam grass (Brachiaria decumbens), cocklebur (common cocklebur, Xanthium strumarium), corn (Zea mays), large crabgrass (Digitaria sanguinalis), woolly cupgrass (Eriochloa villosa), foxtail, giant (giant foxtail, Setaria faberii), goosegrass (Eleusine indica), johnsongrass (Sorghum halepense), kochia (Kochia scoparia), lambsquarters (Chenopodium album), morningglory (Ipomoea coccinea), nightshade (eastern black nightshade, Solanum ptycanthum), nutsedge, yellow (yellow nutsedge, Cyperus esculentus), pigweed (Amaranthus retroflexus), ragweed (common ragweed, Ambrosia elation), soybean (Glycine max), common (oilseed) sunflower (Helianthus annuus), Russian thistle (Salsola kali) and velvetleaf (Abutilon theophrasti) were planted into a blend of loam soil and sand and treated preemergence with test chemicals formulated in a non-phytotoxic solvent mixture which included a surfactant.
(§2) Treated plants and controls were maintained in a greenhouse for 13 to 15 days, after which time all species were compared to controls and visually evaluated. Plant response ratings, summarized in Table C, are based on a scale of 0 to 100 where 0 is no effect and 100 is complete control. A dash (-) response means no test result.

[1] = test system: galium (catchweed bedstraw, Galium aparine); test: Test C pre-/postemergence: galium; type: in vivo
Summary of the method: (§3)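 Preemergence on seeds in loam/sand, postemergence on 2–18 cm (1–4-leaf) plants in peat-based medium; compounds in non-phytotoxic solvent with surfactant. After 13–15 days in greenhouse, visual rating versus controls, 0 (no effect) to 100 (complete control).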

[2] = test system: winter wheat (Triticum aestivum); test: Test C pre-/postemergence: winter wheat; type: in vivo
Summary of the method: as §3

[3] = test system: morningglory (Ipomoea coccinea); test: Test C pre-/postemergence: morningglory; type: in vivo
Summary of the method: as §3

[4] = test system: velvetleaf (Abutilon theophrasti); test: Test C pre-/postemergence: velvetleaf; type: in vivo
Summary of the method: as §3

rice (Oryza sativa) = test: Test B flooded paddy: rice; type: in vivo; conditions: Flood; 125 g ai/ha; applied to paddy water at 2-leaf stage; visually evaluated after 13 to 15 days
Summary of the method: (§4)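 Plants were grown to the 2-leaf stage, then pots were flooded to 3 cm above the soil and compounds were applied directly into the paddy water. Water depth was held for the whole test; after 13 to 15 days in a greenhouse, injury was visually rated against untreated controls (0 = no effect, 100 = complete control).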

corn (Zea mays) = test: Test C pre-/postemergence: corn; type: in vivo
Summary of the method: as §3

Waterhemp [5] = test: Test C pre-/postemergence: waterhemp; type: in vivo; conditions: Preemergence, 250 g ai/ha; scale 0 to 100, 0 no effect, 100 complete control
From the text: as §1
(§5) At the same time, plants selected from these crop and weed species and also barley (winter barley, Hordeum vulgare), canarygrass (Phalaris minor), chickweed (common chickweed, Stellaria media) windgrass (Apera spica-venti) and deadnettle (henbit deadnettle, Lamium amplexicaule) were planted in pots containing Redi-Earth® planting medium (Scotts Company, 14111 Scottslawn Road, Marysville, Ohio 43041) comprising spaghnum peat moss, vermiculite, wetting agent and starter nutrients and treated with postemergence applications of test chemicals formulated in the same manner. Plants ranged in height from 2 to 18 cm (1- to 4-leaf stage) for postemergence treatments.
as §2

[6] = test system: sedge, umbrella (small-flower umbrella sedge Cyperus difformis); test: Test B flooded paddy: sedge, umbrella; type: in vivo; conditions: Flood; 125 g ai/ha; applied to paddy water at 2-leaf stage; visually evaluated after 13 to 15 days
Summary of the method: as §4

[7] = test system: lambsquarters (Chenopodium album); test: Test C pre-/postemergence: lambsquarters; type: in vivo
Summary of the method: as §3

Barnyardgrass = test: Test C postemergence: barnyardgrass; type: in vivo, Echinochloa crus-galli
From the text: as §5, §2

Waterhemp [8] = test: Test C postemergence: waterhemp; type: in vivo
From the text: as §5, §2

[9] = Preemergence, 31 g ai/ha, scale of 0 to 100, 0 is no effect, 100 is complete control
[10] = Preemergence, 62 g ai/ha, scale of 0 to 100, 0 is no effect, 100 is complete control
[11] = Preemergence, 125 g ai/ha, scale 0 to 100, 0 no effect, 100 complete control
[12] = Preemergence, 250 g ai/ha, scale 0 to 100, 0 no effect, 100 complete control
[13] = Postemergence, 31 g ai/ha, scale 0 to 100 (0 no effect, 100 complete control)
[14] = Postemergence, 62 g ai/ha, scale 0 to 100 (0 no effect, 100 complete control)
[15] = Postemergence, 125 g ai/ha, scale 0 to 100, 0 no effect, 100 complete control
[16] = Postemergence, 250 g ai/ha, scale 0 to 100
[17] = Preemergence, 31 g ai/ha, scale 0 (no effect) to 100 (complete control)
[18] = 31 g ai/ha, scale 0 to 100 (0 no effect, 100 complete control)
[19] = 62 g ai/ha, scale 0 to 100 (0 no effect, 100 complete control)

CCOCc1nn(-c2ccc(F)cc2)nc1Oc1ccnc(C(F)(F)F)c1 [Compound 163]
Plant response rating, Oilseed Rape (Oilseed Rape; 31 g ai/ha): 0 | Plant response rating, Oilseed Rape (Oilseed Rape; 62 g ai/ha): 50 | Plant response rating, Galium [1, 9]: 0 | Plant response rating, Galium [1, 10]: 5 | Plant response rating, Galium [1, 11]: 5 | Plant response rating, Galium [1, 12]: 75 | Plant response rating, Wheat [2, 10]: 0 | Plant response rating, Wheat [2, 11]: 0 | Plant response rating, Wheat [2, 12]: 0 | Plant response rating, Morningglory [3, 9]: 20 | Plant response rating, Morningglory [3, 10]: 25 | Plant response rating, Morningglory [3, 11]: 30 | Plant response rating, Morningglory [3, 12]: 75 | Plant response rating, Velvetleaf [4, 9]: 0 | Plant response rating, Velvetleaf [4, 10]: 10 | Plant response rating, Velvetleaf [4, 11]: 20 | Plant response rating, Velvetleaf [4, 12]: 75 | Plant response rating, Rice (0 to 100 scale, 0 is no effect, 100 is complete control) (rice (Oryza sativa)): 15 | Plant response rating, Corn (corn (Zea mays); [9]): 10 | Plant response rating, Corn (corn (Zea mays); [10]): 10 | Plant response rating, Corn (corn (Zea mays); [12]): 10 | Plant response rating, Waterhemp (Waterhemp [5]): 100 | Plant response rating, Sedge, Umbrella (0 to 100 scale, 0 is no effect, 100 is complete control) [6]: 80

CCOc1nn(-c2ccc(C(F)(F)F)cc2)nc1Cc1ccnc(C(F)(F)F)c1 [Compound 164, 4-[[5-ethoxy-2-[4-(trifluoromethyl)phenyl]-2H-1,2,3-triazol-4-yl]methyl]-2-(trifluoromethyl)pyridine]
Plant response rating, Oilseed Rape (Oilseed Rape; 62 g ai/ha): 5 | Plant response rating, Galium [1, 13]: 30 | Plant response rating, Galium [1, 14]: 30 | Plant response rating, Galium [1, 15]: 60 | Plant response rating, Galium [1, 16]: 60 | Plant response rating, Galium [1, 17]: 0 | Plant response rating, Galium [1, 10]: 50 | Plant response rating, Galium [1, 11]: 80 | Plant response rating, Galium [1, 12]: 80 | Plant response rating, Wheat [2, 13]: 5 | Plant response rating, Wheat [2, 14]: 10 | Plant response rating, Wheat [2, 15]: 10 | Plant response rating, Wheat [2, 16]: 10 | Plant response rating, Wheat [2, 17]: 0 | Plant response rating, Wheat [2, 10]: 0 | Plant response rating, Wheat [2, 11]: 0 | Plant response rating, Wheat [2, 12]: 5 | Plant response rating, Morningglory [3, 13]: 50 | Plant response rating, Morningglory [3, 14]: 60 | Plant response rating, Morningglory [3, 16]: 75 | Plant response rating, Morningglory [3, 17]: 5 | Plant response rating, Morningglory [3, 10]: 15 | Plant response rating, Morningglory [3, 11]: 25 | Plant response rating, Morningglory [3, 12]: 45 | Plant response rating, Velvetleaf [4, 13]: 25 | Plant response rating, Velvetleaf [4, 14]: 30 | Plant response rating, Velvetleaf [4, 15]: 40 | Plant response rating, Velvetleaf [4, 16]: 40 | Plant response rating, Velvetleaf [4, 17]: 10 | Plant response rating, Velvetleaf [4, 10]: 10 | Plant response rating, Velvetleaf [4, 11]: 30 | Plant response rating, Velvetleaf [4, 12]: 70 | Plant response rating, Rice (0 to 100 scale, 0 is no effect, 100 is complete control) (rice (Oryza sativa)): 45 | Plant response rating, Lambsquarters [7, 13]: 50 | Plant response rating, Lambsquarters [7, 14]: 55 | Plant response rating, Lambsquarters [7, 15]: 60 | Plant response rating, Lambsquarters [7, 16]: 70 | Plant response rating, Lambsquarters [7, 17]: 85 | Plant response rating, Lambsquarters [7, 10]: 85 | Plant response rating, Lambsquarters [7, 11]: 95 | Plant response rating, Lambsquarters [7, 12]: 95 | Plant response rating, Corn (corn (Zea mays); [13]): 15 | Plant response rating, Corn (corn (Zea mays); [14]): 15 | Plant response rating, Corn (corn (Zea mays); [15]): 20 | Plant response rating, Corn (corn (Zea mays); [16]): 20 | Plant response rating, Corn (corn (Zea mays); [17]): 0 | Plant response rating, Corn (corn (Zea mays); [10]): 5 | Plant response rating, Corn (corn (Zea mays); [11]): 10 | Plant response rating, Corn (corn (Zea mays); [12]): 10 | Plant response rating, Barnyardgrass (Barnyardgrass; [18]): 5 | Plant response rating, Barnyardgrass (Barnyardgrass; [19]): 10 | Plant response rating, Barnyardgrass (Barnyardgrass; 250 g ai/ha, scale 0 to 100): 10 | Plant response rating, Sedge, Umbrella (0 to 100 scale, 0 is no effect, 100 is complete control) [6]: 75 | Plant response rating, Waterhemp (Waterhemp [8]; [18]): 35 | Plant response rating, Waterhemp (Waterhemp [8]; [19]): 65 | Plant response rating, Waterhemp (Waterhemp [8]; 250 g ai/ha, scale 0 to 100): 75

Reference: US9302999B2, “Substituted triazoles as herbicides” (E. I. DU PONT DE NEMOURS AND COMPANY, priority 2012, dated 2016)
